Consider three molecules from ChEMBL document CHEMBL5726902, “Heterocyclic kinase inhibitors” (2019).

Structures are written as SMILES.

Sequence of Macrophage colony-stimulating factor 1 receptor (P07333 whole entry, the tested form may be a part): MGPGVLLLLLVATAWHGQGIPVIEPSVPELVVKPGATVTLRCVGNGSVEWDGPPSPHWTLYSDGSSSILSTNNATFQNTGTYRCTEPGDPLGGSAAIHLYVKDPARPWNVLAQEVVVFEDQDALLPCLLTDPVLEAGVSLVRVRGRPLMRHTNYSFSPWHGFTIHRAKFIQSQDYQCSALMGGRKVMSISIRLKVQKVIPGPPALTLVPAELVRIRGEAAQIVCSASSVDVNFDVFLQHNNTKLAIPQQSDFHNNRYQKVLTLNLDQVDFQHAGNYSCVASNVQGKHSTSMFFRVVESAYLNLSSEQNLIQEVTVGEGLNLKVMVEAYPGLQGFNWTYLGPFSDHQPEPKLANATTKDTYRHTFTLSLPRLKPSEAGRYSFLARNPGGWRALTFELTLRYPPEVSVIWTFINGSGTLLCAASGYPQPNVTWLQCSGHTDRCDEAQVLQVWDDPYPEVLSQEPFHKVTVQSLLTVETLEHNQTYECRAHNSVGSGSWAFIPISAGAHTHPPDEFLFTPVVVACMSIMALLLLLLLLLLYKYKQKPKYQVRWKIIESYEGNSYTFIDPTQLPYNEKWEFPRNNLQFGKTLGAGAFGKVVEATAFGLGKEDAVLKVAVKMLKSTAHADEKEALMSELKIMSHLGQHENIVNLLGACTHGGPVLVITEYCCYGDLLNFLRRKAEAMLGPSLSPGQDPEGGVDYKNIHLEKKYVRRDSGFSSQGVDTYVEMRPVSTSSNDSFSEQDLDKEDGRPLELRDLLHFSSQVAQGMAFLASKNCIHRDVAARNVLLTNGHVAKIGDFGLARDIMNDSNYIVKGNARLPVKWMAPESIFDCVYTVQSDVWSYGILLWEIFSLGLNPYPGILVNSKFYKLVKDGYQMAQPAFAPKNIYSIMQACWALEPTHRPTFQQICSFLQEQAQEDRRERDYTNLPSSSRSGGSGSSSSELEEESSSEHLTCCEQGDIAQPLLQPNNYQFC

This experiment concerns the target Macrophage colony-stimulating factor 1 receptor (Homo sapiens, UniProt P07333). The experiment is described as follows: In Vitro CSF-1R Kinase Activity: The CSF-1R construct corresponds to recombinant human catalytic domain (aa 538-910), which was purchased from Invitrogen (cat #PV4092). CSF-1R was mixed with peptide substrate (biotin-TYR1, Sequence: Biotin-(Ahx)-GAEEEIYAAFFA-COOH, 4 μM final) at varying inhibitor concentrations in reaction buffer: 50 mM MOPSO pH 6.5, 10 mM MgCl2, 2 mM MnCl2, 2.5 mM DTI, 0.01% BSA, 0.1 mM Na3VO4 and 0.1 mM ATP. After about 60 min incubation at rt, the reaction was quenched by addition of EDTA (final concentration: 100 mM) and developed by addition of detection reagents (final approximate concentrations: 30 mM HEPES pH 7.0, 0.06% BSA, 0.006% Tween-20, 0.24 M KF, 80 ng/mL PT66K (europium labeled anti-phosphotyrosine antibody cat #61T66KLB Cisbio, Bedford, Mass.) and 0.6 μg/mL SAXL (Phycolink streptavidin-allophycocyanin acceptor, cat #PJ25S, Prozyme, San Leandro, Calif.). The developed reaction was incubated in the dark for about 60 min at rt, then read via a time-resolved fluorescence detector (Rubystar, BMG) using a 337 nm laser for excitation and monitoring emission wavelength at 665 nm. Within the linear range of the assay, the observed signal at 665 nm was directly related to phosphorylated product and can be used to calculate the IC50 values.
In general, IC50 refers to the concentration that gives 50% inhibition. For `O[C@H]1CC[C@@H](n2cc(Nc3nc(C4CCCCC4)cn4ncnc34)cn2)CC1`, the half-inhibitory concentration (IC50) is less than 100 nM.
Next, `CC1(C)CC(n2cc(Nc3nc(C4CCCCC4)cn4ncnc34)cn2)CC(C)(C)O1`: less than 100 nM; `O[C@H]1CC[C@H](n2cc(Nc3nc(C4CCCCC4)cn4ncnc34)cn2)CC1`: less than 100 nM.
